Source: US20180186769A1, “6-AMINO-5-FLUORO-5-(FLUOROMETHYL)-2,3,4,5-TETRAHYDROPYRIDIN-2-YL-PHENYL-5-(METHOXY-D3)-PYRAZINE-2-CARBOXAMIDES AND FLUORINATED DERIVATIVES THEREOF AS BACE1 INHIBITORS” (H. Lundbeck A/S, priority 2016, published 2018)

How the values were obtained:
[1] = test system: Aβ40; test: Aβ levels in rat brain and plasma following BACE1 inhibition (Aβ40 ELISA); type: in vivo, Sprague Dawley rats; conditions: p.o.
Experimental: Assessment of […] in rat brain and plasma following BACE1 inhibition.
Young adult Male Sprague Dawley rats of approximately 250 g weight were purchased from Charles River and received vehicle (2.5% HP betaCD+1M MeSO4, pH 2.5) or 0-40 mg/kg of test compounds (dissolved in vehicle) by oral gavage (p.o). The compounds are dosed at a volume of 5 ml/kg. Cohorts of 5-10 animals were established for each treatment condition.
Studies were set up as acute dose response treatment studies were samples were taken at T=180 minutes after initial dosing, or as 12 h or 24 h timecourse treatment studies. At the end of the test period, the animals were stunned and decapitated with a guillotine. Trunk-blood was sampled in EDTA coated tubes after decapitation of the animal. The blood was centrifuged at 2200G at 4° C. for 15 minutes and the plasma was collected and frozen at −80° C. The blood was aliquoted for Aβ ELISA and DMPK analysis. Immediately following sacrifice, the brain was extracted and split into 2 halves. The left half was dissected; with the front forebrain taken for Aβ ELISA and the remainder used for DMPK analysis. These samples were also snap frozen on dry ice and stored at −80° C. until use for analysis. The right hemibrains were snap frozen on dry ice and stored at −80° C. for independent confirmatory Aβ ELISA evalution.
The cortex samples were thawed slightly on wet ice before they were homogenized with a small volume dispersing instrument (T10 basic ULTRA-TURRAX®) which was set at speed 5 for approximately 5-7 sec. The tissue was processed in a 10 times volume of the weight, for example 100 mg of tissue was homogenized in […] of Homogenization buffer. Homogenization buffer: 50 ml Milli Q water+[…]+0.2% Diethylamin (DEA)+1 tablet of Complete Protease inhibitor cocktail+[…] 4-(2-aminoethyl) benzenesulfonyl fluoride hydrochloride irreversible serine protease inhibitor (AEBSF).
After homogenization 450 μL aliquots of the samples are collected into a 1.5 ml Eppendorf tube and placed on wet ice, 0.5% NP-40 (50 ul) was added to all samples and then they were incubated on ice for 30 min. After which all samples were sonicated using an Ultrasonic homogenizer with 20 kHz homogeneous sound (SONOPLUS HD2070, Bandelin Electronic) 10 pulse set at 12-13% power to extract all the Aβ species. The samples were then centrifuged (Ole Dich 157 MPRF Micro centrifuge) at 20000G for 20 minutes at 4° C. After centrifugation […] of the supernatant was pipetted into 600 μL microtubes tubes and neutralized with 15 µL of 1M Tris-HCL buffer.
WAKO 294-62501 Human/Rat Abeta amyloid-40 kit was used for all ELISA analyses. 30 μL plasma samples or 30 μL of the cortex supernatants generated as described above were placed in 600 μL microtubes tubes on wet ice. To this 30 μL of 8M Urea (AppliChem A1049, 9025) are added to generate a 2-fold dilution. Both plasma and cortex supernatants are incubated on ice for 30 min. Standard rows were prepared from the standard peptide stock provided in the kit and standard diluent containing 1.6M Urea (200 μL 8M Urea+800 μL of standard diluent) and 0.8M Urea (400 μL 8M Urea+[…] Standard diluent). A serial 2-fold dilution of Aβ40 from 100 pmol/ml to 0 pmol/L was prepared for the assay.
After incubation with urea, all samples were further diluted by addition of 5 times standard diluent from the Kit. This was done by adding 240 μL Standard Diluent to 60 μL sample/urea mixture, which was then mixed well. 100 μL of each diluted sample was pipetted into designated wells of the ELISA plate in duplicates. The plate was then covered and incubated overnight at 4° C. The following day, the ELISA kit was brought to room temperature before use. The incubated plate was washed 5 times with the 20× washing solution diluted in Milli Q water. 100 μL HRP-conjugate was applied to each well, and the plate was covered and incubates at 4° C. for 1 hr. The wash was repeated again for 5 times. […]

[2] = Clearance in microsomes, cyno; type: in vitro ADME; conditions: cynomolgus monkey, 1 microM, read-out: CLint, Cyno (L/h/kg) ± SD (converted)
Source text: (§1) Deuterated compounds were compared to their non-deuterated parent counterparts to determine the impact of deuteration on clearance results

[3] = molecular target: BACE1 (Homo sapiens, UniProt P56817); test: BACE1 efficacy assay (FRET-based); type: biochemical; parameters: purchased Life Technologies P2985; conditions: 10 μM test compound
Chain of BACE1 (P56817 46-501): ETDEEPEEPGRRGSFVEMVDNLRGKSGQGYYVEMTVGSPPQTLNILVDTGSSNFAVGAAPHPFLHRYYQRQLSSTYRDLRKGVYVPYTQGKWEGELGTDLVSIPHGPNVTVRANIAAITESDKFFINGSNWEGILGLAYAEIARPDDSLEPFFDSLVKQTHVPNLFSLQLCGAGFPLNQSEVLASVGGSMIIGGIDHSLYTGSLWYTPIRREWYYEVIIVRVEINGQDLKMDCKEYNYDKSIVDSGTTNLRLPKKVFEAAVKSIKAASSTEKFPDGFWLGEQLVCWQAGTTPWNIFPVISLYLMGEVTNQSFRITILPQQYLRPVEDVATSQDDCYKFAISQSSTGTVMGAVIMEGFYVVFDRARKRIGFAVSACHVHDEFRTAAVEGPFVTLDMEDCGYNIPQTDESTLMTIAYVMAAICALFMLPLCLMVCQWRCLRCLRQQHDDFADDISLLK
Experimental: The efficacy assay was performed as a FRET-based assay using a commercially available BACE1 kit (Life Technologies, P2985). 2 μl test compound at 10 μM (final concentration) and 15 μl BACE1 enzyme from the kit (final concentration 3 nM) were preincubated for 15 minutes at room temperature before addition of 15 μl of substrate from the kit (250 nM final concentration) and incubated for additional 90 minutes at room temperature. The assay plate was subsequently read in a Pherastar (Ex540/Em590). The enzyme activity observed in presence of test compound were normalized to the enzyme activity observed in presence of buffer and 10 μM (final concentration) of the high affinity BACE1 reference inhibitor (S)-6-[3-Chloro-5-(5-prop-1-ynyl-pyridin-3-yl)-thiophen-2-yl]-2-imino-3,6-dimethyl-tetrahydropyrimidin-4-one, respectively. The efficacy of the test compounds was evaluated at 10 μM (final concentration) and defined as the percent inhibition of the enzyme activity using the equation % inhibition=100%−normalized enzyme activity in percent.

[4] = Clearance in microsomes, rat; type: in vitro ADME; conditions: 1 microM, read-out: CLint, Rat (L/h/kg) ± SD (converted)
Source text: as §1

[5] = Clearance in hepatocytes, rat; type: in vitro ADME; conditions: read-out: CLint, Rat (L/h/kg) ± SD (converted)
Source text: as §1

With [2H]C([2H])([2H])Oc1cnc(C(=O)Nc2ccc(F)c([C@]3(C)CC[C@@](F)(CF)C(N)=N3)c2)cn1 [Example 1, N-(3-((2S,5S)-6-amino-5-fluoro-5-(fluoromethyl)-2-methyl-2,3,4,5-tetrahydropyridin-2-yl)-4-fluorophenyl)-5-(methoxy-d3)pyrazine-2-carboxamide] the “Aβ40 reduction (%) brain” value ([1]; 10 mg/kg, 0.5 h) was −0.3%, the “Aβ40 reduction (%) plasma” value ([1]; 10 mg/kg, 0.5 h) was −0.4% and the “Aβ40 reduction (%) brain” value ([1]; 10 mg/kg, 1 h) was 17.2%. For the same compound, the “Aβ40 reduction (%) plasma” value ([1]; 10 mg/kg, 1 h) was 29.5%, the “Aβ40 reduction (%) brain” value ([1]; 10 mg/kg, 3 h) was 38.3% and the “Aβ40 reduction (%) plasma” value ([1]; 10 mg/kg, 3 h) was 21.7%. For the same compound, the “Aβ40 reduction (%) brain” value ([1]; 10 mg/kg, 6 h) was 39.4%, the “Aβ40 reduction (%) plasma” value ([1]; 10 mg/kg, 6 h) was 15.5% and the “Aβ40 reduction (%) brain” value ([1]; 10 mg/kg, 12 h) was 13.7%. The “Aβ40 reduction (%) plasma” value ([1]; 10 mg/kg, 12 h) was 20.7%, the “Aβ40 reduction (%) brain” value ([1]; 20 mg/kg, 0.5 h) was 14.7% and the “Aβ40 reduction (%) plasma” value ([1]; 20 mg/kg, 0.5 h) was 36.5%. For the same compound, the “Aβ40 reduction (%) brain” value ([1]; 20 mg/kg, 1 h) was 29.7%, the “Aβ40 reduction (%) plasma” value ([1]; 20 mg/kg, 1 h) was 41.4% and the “Aβ40 reduction (%) brain” value ([1]; 20 mg/kg, 3 h) was 38.5%. The “Aβ40 reduction (%) plasma” value ([1]; 20 mg/kg, 3 h) was 34.5%, the “Aβ40 reduction (%) brain” value ([1]; 20 mg/kg, 6 h) was 42.6% and the “Aβ40 reduction (%) plasma” value ([1]; 20 mg/kg, 6 h) was 36.9%. The “Aβ40 reduction (%) brain” value ([1]; 20 mg/kg, 12 h) was 34.5%, the “Aβ40 reduction (%) plasma” value ([1]; 20 mg/kg, 12 h) was 41.3% and the “Aβ40 reduction (%) brain” value ([1]; 40 mg/kg, 0.5 h) was 39.8%. For the same compound, the “Aβ40 reduction (%) plasma” value ([1]; 40 mg/kg, 0.5 h) was 43.0%, the “Aβ40 reduction (%) brain” value ([1]; 40 mg/kg, 1 h) was 43.9% and the “Aβ40 reduction (%) plasma” value ([1]; 40 mg/kg, 1 h) was 47.8%. For the same compound, the “Aβ40 reduction (%) brain” value ([1]; 40 mg/kg, 3 h) was 50.6%, the “Aβ40 reduction (%) plasma” value ([1]; 40 mg/kg, 3 h) was 47.1% and the “Aβ40 reduction (%) brain” value ([1]; 40 mg/kg, 6 h) was 59.5%. For the same compound, the “Aβ40 reduction (%) plasma” value ([1]; 40 mg/kg, 6 h) was 49.9%, the “Aβ40 reduction (%) brain” value ([1]; 40 mg/kg, 12 h) was 57.7% and the “Aβ40 reduction (%) plasma” value ([1]; 40 mg/kg, 12 h) was 41.5%. For the same compound, the CLint scaled at 1 µM [2] was 10 L/h/kg, the inhibition at 10 µM [3] was 100% and the CLint scaled at 1 µM [4] was 0.9 L/h/kg. For the same compound, the CLint scaled at 0.1 µM ([5]; 0.1 microM) was 1.5 L/h/kg, the CLint scaled at 0.3 µM ([5]; 0.3 microM) was 1.2 L/h/kg and the CLint scaled at 1 µM ([5]; 1 microM) was under 0.4 L/h/kg.
